This is an account of results in patent US10383867B2, “Quinoline derivatives and their use for treating endoplasmic reticulum stress-related diseases and disorders” (priority 2015, dated 2019).

In test [1] the test system is HEK293 cells / N2a cells under ER stress. As to the kind of experiment: ER stress cell rescue assay (protection against thapsigargin- or hydrogen peroxide-induced cell-death). Format: cell-based, human (HEK293), mouse (N2a). Conditions: cell rescue from induced ER stress; cell line of the EC50 not specified. As to the method:
Protection against Thapsigargin (TG)-induced Cell-death. Human embryonic kidney (HEK293) cells were grown in Dulbecco's Modified Eagle's Medium (DMEM) with 10% FBS and 1% antibiotic antimycotic solution (ABAM). Mouse neuroblastoma (N2a) cells were grown in 1:1 DMIEM:OPTI-MEM® with 5% FBS and 1% ABAM. All cells were grown in 10% CO2 in a humidified environment of the incubator. Cells grown in 96-well plates were exposed to a test compound (20 μM) for 2 hrs before addition of thapsigargin (15 μM for HEK293 cells and 1 μM for N2a cells) to induce ER stress. After incubation in cell-culture incubator for 24 hrs, ALAMARBLUE® regent (10% v/v) was added to the wells. Fluorescence reading was taken 2 hrs after the addition of the ALAMARBLUE® regent. Cell-viability was calculated as a percentage of relative fluorescence unit (RFU) compared to control.
Protection against Hydrogen Peroxide-induced Cell-death. N2a cell grown in 96-well plates were exposed to a test compound (40 μM) for 2 hrs before addition of hydrogen peroxide (200 μM). After 40 min of incubation with hydrogen peroxide, ALAMARBLUE® regent (10% v/v) was added to the wells. Fluorescence reading was taken 2 hrs after the addition of the ALAMARBLUE® regent. Cell-viability was calculated as a percentage of relative fluorescence unit (RFU) compared to control.
The results are summarized in Table 1, where, for ER stress cell rescue ECso values, A represents a value smaller than 20 μM, B represents a value between 20 μM to 100 μM, C represents a value greater than 100 μM.

The subject of another test is SERCA. As to the kind of experiment: Activation of SERCA (NADH-linked, enzyme-coupled ATPase assay). As to conditions: for Increase in Vmax at 10 μM: SERCA ATPase, compound at 10 μM; for pEC50: SR vesicles, concentration for 50% activation of the maximum Vmax. Format: biochemical. The procedure: Test compounds were characterized over a range of concentrations using an NADH-linked, enzyme-coupled ATPase assay. Each well contained […] of SR vesicles (optimized for skeletal or cardiac SR, respectively), 50 mM MOPS (pH 7.0), 100 mM KCl, 5 mM MgCl2, 1 mM EGTA, 0.2 mM NADH, 1 mM phosphoenol pyruvate, 5 IU pyruvate kinase, 5 IU lactate dehydrogenase, and […] A23187 (a calcium ionophore), and CaCl2 was added to set free [Ca^2+] to the specific values. The assay was started upon addition of ATP at a final concentration of 5 mM, and read in a SpectraMax Plus microplate spectrophotometer and the ATPase activities were fitted using the Hill function. ECso values were determined as the concentrations of the test compounds that were required for 50% activation of the maximum Vmax.
The biological results are summarized in Table 1, wherein, for SERCA ATPase EC50 values, A represents a value smaller than 20 μM, B represents a value between 20 μM to 100 μM, C represents a value greater than 100 μM; and for increases in Vmax at 10 μM, A′ represents an increase greater than 50%, B′ represents an increase between 20 to 50%, and C′ represents an increase no greater than 20%.

pEC50: −log10 of the molar value.

Compound `Cc1ccc2cccc(NCc3cc(Br)cs3)c2n1` [C2, N-((4-Bromothiophen-2-yl)methyl)-2-methylquinolin-8-amine] had a pEC50 in test [1] greater than 4.70. For the same compound, in the test with SERCA, the “Increase in Vmax at 10 μM” value was “B′ (B′ represents an increase between 20 to 50%)” and the pEC50 was greater than 4.70.
The compound `Cc1ccc2cccc(-c3nc(-c4ccc(Br)s4)no3)c2n1` [B2, 3-(5-Bromothiophen-2-yl)-5-(2-methylquinolin-8-yl)-1,2,4-oxadiazole] had a negative-log EC50 (pEC50) in test [1] greater than 4.70. Besides, in the test on SERCA, the “Increase in Vmax at 10 μM” value is given as “B′ (B′ represents an increase between 20 to 50%)” and the negative logarithm of the EC50 (pEC50) is greater than 4.70.
Compound `Cc1ccc2cccc(/C=C/c3ccc(OC(C)C)cc3)c2n1` [A1, (E)-8-(Isopropoxystyryl)-2-methylquinoline] showed a pEC50 in test [1] greater than 4.70.
For the compound `Cc1ccc2cccc(NS(=O)(=O)c3ccc(OC(C)C)cc3)c2n1` [D1, N-(2-Methylquinolin-8-yl)-5-isopropoxyphenyl-2-sulfonamide], the negative logarithm of the EC50 (pEC50) in test [1] was greater than 4.70. Besides, in the test with SERCA, the “Increase in Vmax at 10 μM” value was “C′ (C′ represents an increase no greater than 20%)” and the pEC50 is greater than 4.70.
`Cc1ccc2cccc(NS(=O)(=O)c3ccc(Br)s3)c2n1` [D3, 5-Bromo-N-(2-methylquinolin-8-yl)thiophene-2-sulfonamide]: the negative-log EC50 (pEC50) (in test [1]; on SERCA) was greater than 4.70 each time. Also, the “Increase in Vmax at 10 μM” value in the test with SERCA is “B′ (B′ represents an increase between 20 to 50%)”.
Turning to `Cc1ccc2cccc(NCc3ccc(OC(C)C)cc3)c2n1` [C1, N-((4-Isopropoxyphenyl)methyl)-2-methylquinolin-8-amine], the negative-log EC50 (pEC50) in test [1] was greater than 4.70. For the same compound, in the test on SERCA, the “Increase in Vmax at 10 μM” value is recorded as “B′ (B′ represents an increase between 20 to 50%)” and the pEC50 is greater than 4.70.
In test [1], `Cc1ccc2cccc(NCc3ccc(Br)s3)c2n1` [C3, N-((5-Bromothiophen-2-yl)methyl)-2-methylquinolin-8-amine] had a negative logarithm of the EC50 (pEC50) greater than 4.70. In addition, in the test on SERCA, the “Increase in Vmax at 10 μM” value is on record as “B′ (B′ represents an increase between 20 to 50%)” and the negative logarithm of the EC50 (pEC50) is greater than 4.70.
Turning to `Cc1ccc2cccc(-c3nc(-c4ccc(OC(C)C)cc4)no3)c2n1` [B1, 3-(4-Isopropoxyphenyl)-5-(2-methylquinolin-8-yl)-1,2,4-oxadiazole], the negative logarithm of the EC50 (pEC50) (in test [1]; at SERCA) was greater than 4.70 in each case. The “Increase in Vmax at 10 μM” value in the test on SERCA is given as “B′ (B′ represents an increase between 20 to 50%)”.
Consider `Cc1ccc2cccc(NS(=O)(=O)c3cc(Br)cs3)c2n1` [D2, 4-Bromo-N-(2-methylquinolin-8-yl)thiophene-2-sulfonamide], for which the negative-log EC50 (pEC50) in test [1] was greater than 4.70. In the test on SERCA, the “Increase in Vmax at 10 μM” value is “B′ (B′ represents an increase between 20 to 50%)” and the negative-log EC50 (pEC50) was greater than 4.70.
